Patent publication US20080207617A1, “Quinoline Derivatives and Quinazoline Derivatives Inhibiting Autophosphrylation of Flt3 and Medicinal Compositions Containing the Same” (KIRIN BEER KABUSHIKI KAISHA, priority 2002, published 2008)
Where a name gives a salt, the structure may show the parent alone. Read-outs that look alike come from different tables or passages of the source.

Experiments:
FLT3 = target: T1, FLT3 (Homo sapiens, UniProt P36888); test: Inhibitory activity against FLT3 autophosphorylation using ELISA method; format: cell-based; settings: MV4-11 cells, 1 hr with compound, read-out: IC50 of FLT3-phosphorylation
T1 sequence (P36888 with tags, fused parts or gaps INS600HVDFREYEYD): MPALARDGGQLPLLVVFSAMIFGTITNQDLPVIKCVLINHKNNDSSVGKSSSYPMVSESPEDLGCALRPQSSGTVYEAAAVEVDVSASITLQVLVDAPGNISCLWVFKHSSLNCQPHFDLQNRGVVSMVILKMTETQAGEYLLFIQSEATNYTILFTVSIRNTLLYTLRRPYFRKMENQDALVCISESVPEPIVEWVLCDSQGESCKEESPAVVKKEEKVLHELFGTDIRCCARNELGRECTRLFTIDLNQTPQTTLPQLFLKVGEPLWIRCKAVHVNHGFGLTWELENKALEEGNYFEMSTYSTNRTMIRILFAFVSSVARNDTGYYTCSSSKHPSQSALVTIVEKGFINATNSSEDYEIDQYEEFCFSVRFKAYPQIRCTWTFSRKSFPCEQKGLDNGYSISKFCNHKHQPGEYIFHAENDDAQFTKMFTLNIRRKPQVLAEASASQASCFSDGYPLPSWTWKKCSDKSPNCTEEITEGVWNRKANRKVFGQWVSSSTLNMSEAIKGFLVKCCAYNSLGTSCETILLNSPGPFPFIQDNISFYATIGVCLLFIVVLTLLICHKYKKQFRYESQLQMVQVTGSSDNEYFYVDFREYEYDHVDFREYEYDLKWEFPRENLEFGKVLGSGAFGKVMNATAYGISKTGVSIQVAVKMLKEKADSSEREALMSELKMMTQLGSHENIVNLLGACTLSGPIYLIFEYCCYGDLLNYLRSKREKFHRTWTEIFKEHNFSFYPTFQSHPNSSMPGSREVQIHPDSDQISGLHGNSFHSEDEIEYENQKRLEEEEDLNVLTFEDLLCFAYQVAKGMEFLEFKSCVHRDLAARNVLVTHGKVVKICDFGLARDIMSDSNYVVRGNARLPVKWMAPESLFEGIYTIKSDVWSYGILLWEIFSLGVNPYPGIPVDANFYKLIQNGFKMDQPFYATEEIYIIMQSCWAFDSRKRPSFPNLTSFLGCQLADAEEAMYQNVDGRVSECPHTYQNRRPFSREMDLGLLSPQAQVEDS
Procedure: Pharmacological Test Example 1
Measurement of Inhibitory Activity Against FLT3 Autophosphorylation Using ELISA Method
Human leukemia cells MV4-11 (ATCC number: CRL-9591) were cultured in an IMDM medium containing 10% fetal calf serum (purchased from SIGMA) within a 5% carbon dioxide incubator until 50 to 90% confluent. The harvested cells were seeded into 96-wells, plates, containing an IMDM medium containing 0.1% fetal calf serum, in a 96-well multiscreen plate in an amount of 5.0×10^5 per well, a solution of the test compound in dimethyl sulfoxide was added to each well, and the cultivation was continued at 37° C. for one hr. The medium was removed, followed by washing with phosphate buffered saline. A lysis buffer (60 μl) (20 mM HEPES (pH 7.4), 150 mM NaCl, 0.2% Triton X-100, 10% glycerol, 5 mM sodium orthovanadylate, 5 mM disodium ethylenediaminetetraacetate, and 2 mM Na4P2O7) was then added thereto. The mixture was shaken at 4° C. for 2 hr to prepare a cell extracts.
Separately, phosphate buffered saline (50 μl, pH 7.4) containing 5 μg/ml of anti-phospho-tyrosine antibody (PY20; purchased from Transduction Laboratories) was added to a 96-well microplate for ELISA (Maxisorp; purchased from NUNC), followed by standing at 4° C. overnight to form a solid phase on the wells. After washing of the plate, 250 μl of a blocking solution was added, followed by standing at room temperature for 3 hr to perform blocking. After washing, the whole quantity of the cell extract was transferred to the wells, and the plate was then allowed to stand at 4° C. overnight. After washing, an anti-FLT3 antibody (Flt3/Flk2 (C-20), purchased from Santa Cruz Biotechnology) was allowed to react at room temperature for 2 hr, and, after washing, a peroxidase-labeled anti-rabbit Ig antibody (purchased from Amersham) was allowed to react at room temperature for one hr. After washing, a chromophoric substrate for peroxidase (purchased from Sumitomo Bakelite Co., Ltd.) was added thereto to initiate a reaction. After a suitable level of color development, a reaction termination solution was added to stop the reaction, and the absorbance at 450 nm was measured with a microplate reader. The FLT3-phosphorylation activity for each well was determined by presuming the absorbance without the addition of the medicament to be 100% FLT3-phosphorylation activity and the absorbance with the addition of a large excess of a positive control (Compound 1, 10 μM) to be 0% FLT3-phosphorylation activity. The concentration of the test compound was varied on several levels, the FLT3-phosphorylation inhibitory activity was determined for each case, and the concentration of the test compound necessary for inhibiting 50% of FLT3-phosphorylation (IC50) was calculated.

MOLM13 [1] = test: Cell growth inhibitory activities on cultured human leukemia cells MOLM-13 (WST-1); format: cell-based; settings: 3 days culture
MOLM13 [2] = test: Tumor growth inhibitory activities in nude mice xenograft model inoculated with human leukemia cells MOLM13; format: in vivo; settings: Mus musculus, MOLM-13, po, read-out: TGIR (%) (measurement date); for inhibition in vivo at 50 mg/kg: 50 mg/kg orally once a day
Procedure: Pharmacological Test Example 5
Tumor Growth Inhibitory Activities in Nude Mice Xenograft Model Inoculated with Human Leukemia Cells
Human leukemia cells MOLM13 (subdivided from Hayashibara Biochemical Laboratories, Inc.) were subcutaneously transplanted into nude mice. […] The test compound suspended or dissolved in 0.5% methylcellulose was orally administered at a dose of 0.1 ml per 10 g body weight once a day for 9 days. For the control group, only vehicle was administered.
The tumor growth inhibition rate (TGIR) was calculated as follows:
The tumor growth inhibition rate (TGIR)=(1−TX/CX)×100
wherein CX represents the volume of tumor at day X for the control group when the tumor volume at the day of the start of the administration (day 1) was presumed to be 1; and TX represents the volume of tumor at day X for test compound administration groups.

SMILES | IC50 (FLT3) [nM] | IC50 (MOLM13 [1]; Homo sapiens, MOLM-13, 72 h) [nM] | IC50 (MOLM13 [1]; hydrochloride) [nM] | inhibition in vivo at 12.5 mg/kg (MOLM13 [2]; 216 h, 12.5 mg/kg orally once a day, day 9) [%] | inhibition in vivo at 25 mg/kg (MOLM13 [2]; 216 h, 25 mg/kg orally once a day, day 9) [%] | inhibition in vivo at 50 mg/kg (MOLM13 [2]; 240 h, day 10) [%] | inhibition in vivo at 50 mg/kg (MOLM13 [2]; 264 h, day 11) [%]
COc1cc2nccc(Oc3ccc(NC(=O)NCCC(C)(C)C)cc3F)c2cc1OC [Compound 10, 1-[4-(6,7-Dimethoxy-quinolin-4-yloxy)-3-fluoro-phenyl]-3-(3,3-dimethyl-butyl)-urea hydrochloride] | < 1 | 2 |  |  |  | 84.8 | 
COc1cc2nccc(Oc3ccc(NC(=O)NCCC(C)(C)C)cc3Cl)c2cc1OC [Compound 8, 1-[3-Chloro-4-(6,7-dimethoxy-quinolin-4-yloxy)-phenyl]-3-(3,3-dimethyl-butyl)-urea] | < 1 | 3 |  |  |  |  | 
COc1cc2c(Oc3ccc(NC(=O)NCCC(C)(C)C)c(F)c3)ccnc2cc1OCCN1CCOCC1 [Compound 41, 1-(3,3-Dimethyl-butyl)-3-{2-fluoro-4-[6-methoxy-7-(2-morpholin-4-yl-ethoxy)-quinolin-4-yloxy]-phenyl}-urea hydrochloride] | 308 |  | 75 |  |  |  | 
COc1cc2nccc(Oc3c(Cl)cc(NC(=O)NCCC(C)(C)C)cc3Cl)c2cc1OC [Compound 6, 1-[3,5-Dichloro-4-(6,7-dimethoxy-quinolin--4-yloxy)-phenyl]-3-(3,3-dimethyl-butyl)-urea] | 109 | 21 |  |  |  |  | 
COc1cc2nccc(Oc3ccc(NC(=O)NCCC(C)(C)C)cc3)c2cc1OC [Compound 1, 1-[4-(6,7-Dimethoxy-quinolin-4-yloxy)-phenyl]-3-(3,3-dimethyl-butyl)-urea hydrochloride] | 2 | 1 |  |  |  |  | 53.8

Continued, in another order:

IC50 (FLT3) [nM] | IC50 (MOLM13 [1]; Homo sapiens, MOLM-13, 72 h) [nM] | IC50 (MOLM13 [1]; hydrochloride) [nM] | SMILES | inhibition in vivo at 12.5 mg/kg (MOLM13 [2]; 216 h, 12.5 mg/kg orally once a day, day 9) [%] | inhibition in vivo at 25 mg/kg (MOLM13 [2]; 216 h, 25 mg/kg orally once a day, day 9) [%] | inhibition in vivo at 50 mg/kg (MOLM13 [2]; 240 h, day 10) [%] | inhibition in vivo at 50 mg/kg (MOLM13 [2]; 264 h, day 11) [%]
200 | 3 |  | COc1cc2c(Oc3ccc(NC(=O)NCCC(C)(C)C)cc3F)ccnc2cc1OCCN1CCCCC1 [Compound 44, 1-(3,3-Dimethyl-butyl)-3-{3-fluoro-4-[6-methoxy-7-(2-piperidin-1-yl-ethoxy)-quinolin-4-yloxy]-phenyl}-urea] | 99.6 | 99.8 |  | 
216 | 22 |  | COc1cc2c(Oc3ccc(NC(=O)NCCC(C)(C)C)c(F)c3)ccnc2cc1OCCN1CCCCC1 [Compound 43, 1-(3,3-Dimethyl-butyl)-3-{2-fluoro-4-[6-methoxy-7-(2-piperidin-1-yl-ethoxy)-quinolin-4-yloxy]-phenyl}-urea hydrochloride] |  |  | 98.1 | 
